Data reported in US20240294467A1, “USP9X Inhibitors” (ProDeg, LLC, priority 2021, published 2024).
Read-outs that look alike come from different tables or passages of the source. Blank lines part the entries; values can stand above or below the compound they belong to. Residues, ends and D or L forms follow the SMILES beside them. *: point of attachment. Cbz = O=C(OCc1ccccc1)*

How the values were obtained:
[1] = tested on: Mia-Paca-2 pancreatic cancer cells; assay: WST-1 cell viability assay; assay type: cell-based; settings: for cell viability: Mia-Paca-2 pancreatic cells
Protocol: (§1) Compound Compound 9A was tested for the ability to inhibit the proliferation of Mia-Paca-2 pancreatic cancer cells. Mia-Paca-2 and MDA-MB-231 cells were seeded into the wells of a 96 well tissue culture plate in complete medium (10% fetal calf serum) and incubated overnight at 37° C./5% CO2). The medium was exchanged for fresh medium containing varying concentrations of Compound 9A and the plate was incubated for 72 hours at 37° C./5% CO2. The viability of cells at the end of this incubation was assessed with the WST-1 reagent. To 10 ml of warm (37° C.) complete medium, 1 ml WST-1 reagent was added. The medium from the wells of the plate with the Mia-Paca-2 cells was removed and replaced with 100 μL of the WST-1 reagent in complete medium. The plate was incubated at 37 37° C./5% CO2. At timed intervals the absorbance at 450 nm was determined for each well in a UVNis plate reader. For each well the slope of the plot of the absorbance 450 nm vs time was determined. The readings were normalized to that of the wells for the untreated control and a dose-response curve was plotted. A fit to the data was made from a four parameter, variable slope program (GraphPad Prism) and the IC50 was determined.
(§2) The same procedures were also applied to the compounds Compound 7A, Compound 6A, and Compound 8A to test their inhibitory activities against RKO colon, Mia-Paca-2 pancreatic and BT-549 cancer cells.

MDA-MB-231 cells = assay: WST-1 cell viability assay; assay type: cell-based; settings: Homo sapiens
Protocol: as §1
The TNBC cell line MDA-MB-231 express high levels of Mcl-1 and USP9X in addition to Bcl-2 and Bcl-xL. MDA-MB-231 cells were treated with ABT737 for 72 hours at varying concentrations and underwent western blot analysis.

U937 cells = assay: WST-1 cell viability assay; assay type: cell-based; settings: Homo sapiens, U-937, U937 cells
Protocol: as §1
The effect of Compound 7A on U937 cells was assessed using the same experiment described in the Inhibitory Activities against the Proliferation of Mia-Paca-2 and Other Cancer Cells section above. In response to treatment with Compound 7A, proliferation of U937 leukemia cells was inhibited and induced apoptosis was obsessed by trypan blue staining.
U937 cells were treated with the Bcl-2/Bcl-xL inhibitor ABT737 72 hours at varying concentrations and underwent western blot analysis.

RKO colon cells = assay: WST-1 cell viability assay; assay type: cell-based
Protocol: as §1, §2

BT-549 cancer cells = assay: WST-1 cell viability assay; assay type: cell-based, human; settings: BT-549 cells
Protocol: as §1, §2

USP9X = USP9X (Homo sapiens (Human), UniProt Q93008); settings: cited from earlier work
Chain of USP9X (Q93008 whole entry, species assumed): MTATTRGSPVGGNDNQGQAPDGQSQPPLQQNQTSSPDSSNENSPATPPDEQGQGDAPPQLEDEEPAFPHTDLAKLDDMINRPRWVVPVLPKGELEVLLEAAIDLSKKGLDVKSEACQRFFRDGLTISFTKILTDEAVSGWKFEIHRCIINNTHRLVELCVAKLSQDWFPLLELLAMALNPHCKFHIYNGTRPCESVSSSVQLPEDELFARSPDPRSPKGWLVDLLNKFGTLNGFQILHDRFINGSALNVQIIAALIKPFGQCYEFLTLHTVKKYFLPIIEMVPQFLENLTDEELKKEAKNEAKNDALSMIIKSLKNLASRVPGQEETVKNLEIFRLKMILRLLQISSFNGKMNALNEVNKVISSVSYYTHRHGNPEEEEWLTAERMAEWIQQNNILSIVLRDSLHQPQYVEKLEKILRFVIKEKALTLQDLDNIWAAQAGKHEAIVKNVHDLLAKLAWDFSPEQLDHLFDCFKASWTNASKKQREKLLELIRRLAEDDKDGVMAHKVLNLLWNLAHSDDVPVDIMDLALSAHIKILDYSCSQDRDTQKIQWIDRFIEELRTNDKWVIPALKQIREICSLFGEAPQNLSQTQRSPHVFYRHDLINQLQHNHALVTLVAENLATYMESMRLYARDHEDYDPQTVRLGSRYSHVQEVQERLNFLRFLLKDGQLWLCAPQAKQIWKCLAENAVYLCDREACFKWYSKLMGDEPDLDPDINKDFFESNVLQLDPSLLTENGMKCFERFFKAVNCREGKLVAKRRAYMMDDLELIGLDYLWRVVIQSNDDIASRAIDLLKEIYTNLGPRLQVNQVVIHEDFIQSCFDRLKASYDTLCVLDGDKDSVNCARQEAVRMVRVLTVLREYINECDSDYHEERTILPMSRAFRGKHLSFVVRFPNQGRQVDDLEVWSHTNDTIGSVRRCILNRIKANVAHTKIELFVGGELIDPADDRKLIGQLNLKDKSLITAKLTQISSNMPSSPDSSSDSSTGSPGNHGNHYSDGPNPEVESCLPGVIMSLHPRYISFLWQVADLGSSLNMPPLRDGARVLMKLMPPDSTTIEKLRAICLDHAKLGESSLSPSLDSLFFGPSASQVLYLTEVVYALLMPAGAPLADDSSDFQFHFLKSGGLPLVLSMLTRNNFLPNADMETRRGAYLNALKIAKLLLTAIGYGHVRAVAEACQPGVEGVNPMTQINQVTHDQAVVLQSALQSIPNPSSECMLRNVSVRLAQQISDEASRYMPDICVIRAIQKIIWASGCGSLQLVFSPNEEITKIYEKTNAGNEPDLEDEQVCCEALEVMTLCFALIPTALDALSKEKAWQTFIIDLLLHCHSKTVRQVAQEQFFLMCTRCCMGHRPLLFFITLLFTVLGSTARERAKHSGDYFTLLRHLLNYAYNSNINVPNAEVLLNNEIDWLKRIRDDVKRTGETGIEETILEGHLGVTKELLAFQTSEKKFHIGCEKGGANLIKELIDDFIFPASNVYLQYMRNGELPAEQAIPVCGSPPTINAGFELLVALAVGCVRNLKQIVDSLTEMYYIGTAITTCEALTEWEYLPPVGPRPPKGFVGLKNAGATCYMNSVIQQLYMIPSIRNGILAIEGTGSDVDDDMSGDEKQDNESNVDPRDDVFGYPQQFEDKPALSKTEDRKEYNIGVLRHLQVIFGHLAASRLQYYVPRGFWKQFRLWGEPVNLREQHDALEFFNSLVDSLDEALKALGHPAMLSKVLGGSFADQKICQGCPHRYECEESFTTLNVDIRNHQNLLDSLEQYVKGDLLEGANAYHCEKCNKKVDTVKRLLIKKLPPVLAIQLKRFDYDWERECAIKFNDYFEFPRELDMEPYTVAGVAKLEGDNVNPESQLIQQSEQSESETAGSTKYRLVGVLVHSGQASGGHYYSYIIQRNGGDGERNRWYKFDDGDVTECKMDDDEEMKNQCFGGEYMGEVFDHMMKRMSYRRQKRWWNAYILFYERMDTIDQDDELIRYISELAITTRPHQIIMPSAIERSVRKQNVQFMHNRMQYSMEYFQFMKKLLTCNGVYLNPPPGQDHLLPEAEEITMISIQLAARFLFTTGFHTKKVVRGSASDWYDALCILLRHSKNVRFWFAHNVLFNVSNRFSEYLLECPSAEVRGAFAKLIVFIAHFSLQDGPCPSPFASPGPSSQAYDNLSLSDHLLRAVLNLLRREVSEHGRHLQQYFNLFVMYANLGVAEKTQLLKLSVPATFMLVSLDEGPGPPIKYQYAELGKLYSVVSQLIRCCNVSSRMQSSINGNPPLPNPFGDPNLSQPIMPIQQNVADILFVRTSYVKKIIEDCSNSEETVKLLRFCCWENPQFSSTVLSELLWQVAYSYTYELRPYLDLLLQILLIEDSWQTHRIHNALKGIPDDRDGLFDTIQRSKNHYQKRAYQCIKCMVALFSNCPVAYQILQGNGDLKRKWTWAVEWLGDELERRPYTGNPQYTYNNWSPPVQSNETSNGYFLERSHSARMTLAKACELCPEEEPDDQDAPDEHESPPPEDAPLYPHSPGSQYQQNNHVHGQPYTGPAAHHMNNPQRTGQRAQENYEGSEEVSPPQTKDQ

USP5 = USP5 (Homo sapiens (Human), UniProt P45974); settings: cited from earlier work
Chain of USP5 (P45974 whole entry, species assumed): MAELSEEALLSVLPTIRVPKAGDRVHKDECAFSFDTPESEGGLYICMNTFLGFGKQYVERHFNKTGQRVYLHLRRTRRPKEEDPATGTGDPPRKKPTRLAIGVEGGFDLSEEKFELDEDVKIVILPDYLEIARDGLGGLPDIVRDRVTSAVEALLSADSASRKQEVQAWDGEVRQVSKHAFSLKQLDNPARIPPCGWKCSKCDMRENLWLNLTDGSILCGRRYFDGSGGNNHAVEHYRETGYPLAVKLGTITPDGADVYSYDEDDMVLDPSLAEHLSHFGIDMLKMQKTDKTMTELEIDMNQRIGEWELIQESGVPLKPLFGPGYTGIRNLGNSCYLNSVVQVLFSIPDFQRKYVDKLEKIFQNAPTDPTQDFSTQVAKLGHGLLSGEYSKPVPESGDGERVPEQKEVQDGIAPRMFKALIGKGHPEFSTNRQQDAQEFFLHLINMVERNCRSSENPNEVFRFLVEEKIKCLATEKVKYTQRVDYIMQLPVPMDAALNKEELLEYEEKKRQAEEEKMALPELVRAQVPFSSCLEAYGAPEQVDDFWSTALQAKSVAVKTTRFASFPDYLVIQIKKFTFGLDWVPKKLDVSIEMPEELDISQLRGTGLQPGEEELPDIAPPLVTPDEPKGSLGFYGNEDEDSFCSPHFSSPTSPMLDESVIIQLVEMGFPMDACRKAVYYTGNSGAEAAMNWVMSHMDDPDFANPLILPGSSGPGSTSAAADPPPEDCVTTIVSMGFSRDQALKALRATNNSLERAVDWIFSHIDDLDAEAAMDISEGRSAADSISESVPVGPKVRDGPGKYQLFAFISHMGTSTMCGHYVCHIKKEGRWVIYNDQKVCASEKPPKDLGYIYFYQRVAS

USP24 = USP24 (Homo sapiens (Human), UniProt Q9UPU5); settings: cited from earlier work
Mcl-1 = assay: Western blot of Mcl-1 in U937 cells; assay type: cell-based; settings: agent alone
Protocol: After 24 hours treatment with Compound 7A, U937 cells were collected by centrifugation and whole cell lysates were prepared. These lysates were analyzed by Western blot to determine the level of Mcl-1. Western blot analysis was carried out as previously described (Wang et al., 2014 Journal of the American Society of Nephrology DOI: 10.1681/asn.2013060665). The band intensity for Mcl-1 in these samples were normalized to that of tubulin to correct for any inconsistencies in total protein in loading and processing the whole cell lysates.
To investigate the mechanism of action, Western blot analysis was carried out to test the induced degradation of USP9X substrate Mcl-1 by the compounds under the effects of protein synthesis inhibitor cycloheximide and/or proteasome inhibitor MG132. U937 cells were treated with 10 μM cycloheximide for one hour, with 10 μM MG132 for one hour, with the combination of 10 μM cycloheximide and 10 μM MG132 for one hour, and with vehicle (DMSO) for one hour, respectively, prior to the treatment with Compound 5A for 24 hrs. The U937 cells were harvested after treatment and whole cell lysates were prepared. These lysates were analyzed by Western blot to determine the abundance of Mcl-1 as well as that of tubulin as a normalization control. […] The band intensity of the Mcl-1 in cells treated with cycloheximide alone (Lane 2) was reduced relative to that for tubulin. […] Global blockade of protein synthesis by cycloheximide led to a significant decrease in the expression levels, especially for short lived Mcl-1. The retention of a reduced portion of Mcl-1 indicated the immunity of this portion to proteasomal degradation. […] In contrast, the band intensity of Mcl-1 relative to that of tubulin increased upon treatment of U937 cells with the proteasome inhibitor MG132 (Lane 4). […] Together, the results of this Example are consistent with the compounds acting on the proposed mechanism that intracellular inhibition of the deubiquitylase activity of USP9X blocks its ability to rescue USP9X substrates such as Mcl-1 from proteasomal degradation. In other aspects, by varying the concentration ratios of the compound and proteasome inhibitor for treating cells, it was possible to achieve controlled degradation of a USP9X substrate so the substrate could decline to a desirable level rather than degrade entirely.

66 cancer cell lines = assay: ONCOLINES Profiler, whole panel; assay type: cell-based; settings: in 3 of 66 cell lines
Text: The sensitivities of multiple cancer cells can be determined by screening the compounds on a cancer cell line panel, such as an ONCOLINES™ Profiler (Netherlands Translational Research Center) assayed with various tumor cell lines. For more information on ONCOLINES™ methods, see https://www.oncolines.com/oncolines/oncolines-explained-facts/. […] For example, Compound 7A inhibited the proliferation of 57 of the 66 cell lines being tested. […] “A tumor cell line sensitive to the compounds” is referred to that the proliferation of a tumor cell line, when contacted with the compounds, is inhibited by at least 50%, at least 60%, at least 70%, at least 80%, at least 85%, at least 90%, at least 91%, at least 92%, at least 93%, at least 94%, at least 95%, at least 96%, at least 97%, at least 98%, at least 99%, or 100%.
(§3) The compounds were profiled on an ONCOLINES™ Profiler (Netherlands Translational Research Center) assayed with 66 cancer cell lines to determine if they were capable of inhibiting the proliferation of these cancer cells.
(§4) To further evaluate potency of the compounds, they were compared with the USP9X inhibitor WP 1130 by screening both the compounds and WP1130 on a 66-cancer cell line panel ONCOLINES™ Profiler.

BT-549 = assay: ONCOLINES Profiler proliferation; assay type: cell-based, human; settings: BT-549, breast ductal carcinoma
Text: as §3, §4

A-172 = assay: ONCOLINES Profiler proliferation; assay type: cell-based; settings: A-172, glioblastoma
Text: as §3, §4

A549 = assay: ONCOLINES Profiler proliferation; assay type: cell-based; settings: A549, lung
Text: as §3, §4

BT-20 = assay: ONCOLINES Profiler proliferation; assay type: cell-based; settings: BT-20, breast carcinoma
Text: as §3, §4

CCRF-CEM = assay: ONCOLINES Profiler proliferation; assay type: cell-based; settings: acute lymphoblastic leukemia
Text: as §3, §4

DU 145 = assay: ONCOLINES Profiler proliferation; assay type: cell-based; settings: DU 145, prostate carcinoma
Text: as §3, §4

H82 = assay: ONCOLINES Profiler proliferation; assay type: cell-based; settings: H82, small cell lung
Text: as §3, §4

Hs 57BT = assay: ONCOLINES Profiler proliferation; assay type: cell-based; settings: Hs 57BT (Hs578T), breast carcinoma
Text: as §3, §4

LoVo = assay: ONCOLINES Profiler proliferation; assay type: cell-based; settings: colorectal adenocarcinoma
Text: as §3, §4

MOLT-4 = assay: ONCOLINES Profiler proliferation; assay type: cell-based; settings: MOLT-4, acute lymphoblastic leukemia
Text: as §3, §4

RKO = assay: ONCOLINES Profiler proliferation; assay type: cell-based; settings: colon carcinoma
Text: as §3, §4

RPMI-7951 = assay: ONCOLINES Profiler proliferation; assay type: cell-based; settings: RPMI-7951, malignant melanoma
Text: as §3, §4

USP14 = USP14 (Homo sapiens (Human), UniProt P54578); settings: cited from earlier work
Chain of USP14 (P54578 whole entry, species assumed): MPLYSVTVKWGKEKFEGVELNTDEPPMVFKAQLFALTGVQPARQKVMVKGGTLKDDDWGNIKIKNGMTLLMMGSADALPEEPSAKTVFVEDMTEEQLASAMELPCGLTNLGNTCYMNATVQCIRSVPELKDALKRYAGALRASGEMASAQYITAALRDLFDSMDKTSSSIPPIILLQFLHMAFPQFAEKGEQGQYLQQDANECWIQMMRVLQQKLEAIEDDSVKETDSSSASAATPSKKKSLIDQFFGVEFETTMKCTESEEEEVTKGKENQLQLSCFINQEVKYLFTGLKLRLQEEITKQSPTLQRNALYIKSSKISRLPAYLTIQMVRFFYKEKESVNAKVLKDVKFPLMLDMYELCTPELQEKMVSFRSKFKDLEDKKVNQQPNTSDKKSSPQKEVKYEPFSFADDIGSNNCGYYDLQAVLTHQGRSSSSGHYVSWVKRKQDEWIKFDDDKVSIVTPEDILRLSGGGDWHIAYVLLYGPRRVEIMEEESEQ

UCH-L1 = UCH-L1 (Homo sapiens (Human), UniProt P09936); settings: cited from earlier work
Chain of UCH-L1 (P09936 whole entry, species assumed): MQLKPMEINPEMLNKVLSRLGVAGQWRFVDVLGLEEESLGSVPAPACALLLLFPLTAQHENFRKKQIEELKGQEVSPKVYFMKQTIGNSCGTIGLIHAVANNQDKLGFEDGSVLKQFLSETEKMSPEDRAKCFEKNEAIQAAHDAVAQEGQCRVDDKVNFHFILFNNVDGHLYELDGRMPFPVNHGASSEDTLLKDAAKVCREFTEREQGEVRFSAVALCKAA

UCH37 = UCH37 (Homo sapiens (Human), UniProt Q9Y5K5); settings: cited from earlier work
Chain of UCH37 (Q9Y5K5 whole entry, species assumed): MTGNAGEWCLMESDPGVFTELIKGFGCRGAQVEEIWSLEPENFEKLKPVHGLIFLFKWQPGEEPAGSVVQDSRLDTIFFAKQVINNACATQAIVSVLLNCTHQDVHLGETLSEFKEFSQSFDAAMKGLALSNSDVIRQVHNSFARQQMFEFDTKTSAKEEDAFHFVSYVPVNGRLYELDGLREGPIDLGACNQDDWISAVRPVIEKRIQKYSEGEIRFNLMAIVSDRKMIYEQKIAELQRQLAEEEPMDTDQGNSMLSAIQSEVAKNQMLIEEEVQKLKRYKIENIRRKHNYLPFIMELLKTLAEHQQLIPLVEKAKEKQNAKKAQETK

[2] = 72 hours, single agent, read-out: IC50, cell viability

- IC50 ([1]; Homo sapiens, Mia-Paca-2 cells, 72 hours, read-out: IC50, inhibition of proliferation): 0.01 µM
- IC50 (MDA-MB-231 cells; [2]): 2 µM
SMILES: CN1CCOc2ccc(c(F)c2)C(=O)NCc2cccc(c2)C(=O)N[C@@H](CC(C)(C)C)C(=O)Nc2ccc(cc2)CCN(C)C(=O)CC(C)(C)CC1=O [Compound 9A]

- IC50 (MDA-MB-231 cells; [2]): 8.7 µM
- IC50 (MDA-MB-231 cells; co-treated with 10 μM Compound 5A, read-out: IC50 of ABT737 with co-treatment): 1.8 µM
- IC50 (U937 cells; 72-hour treatment, single agent, read-out: IC50, cell viability): 3.4 µM
- IC50 (U937 cells; with 0.5 μM Compound 7A, read-out: IC50 of ABT737 with co-treatment): 0.06 µM
SMILES: CN(C)CC[C@H](CSc1ccccc1)Nc1ccc(S(=O)(=O)NC(=O)c2ccc(N3CCN(Cc4ccccc4-c4ccc(Cl)cc4)CC3)cc2)cc1[N+](=O)[O-] [ABT737, reference compound]

SMILES: CN1CCCCOc2ccc(cc2)C(=O)NCc2ccc(F)c(c2)C(=O)N[C@@H](CC(C)(C)C)C(=O)Nc2ccc(cc2)CCC1=O [Compound 8A]
- cell viability [1]: significant decreases
- cell viability (RKO colon cells): significant decreases
- cell viability (BT-549 cancer cells): significant decreases

SMILES: CCCC(NC(=O)/C(C#N)=C/c1nc(Cl)ccc1Cl)c1ccc(OCCN2CCOCC2)cc1 (centres unmarked) [EOAI3402143]
- inhibits USP9X (USP9X): inhibits
- inhibits USP5 (USP5): inhibits
- inhibits USP24 (USP24): inhibits

SMILES: C[C@@H]1C[C@@H]([C@H](O)CC2CC(=O)NC(=O)C2)C(=O)[C@@H](C)C1 [cycloheximide, reference compound]
- band intensity of Mcl-1 relative to tubulin (Mcl-1): reduced

SMILES: CC(C)C[C@@H](C=O)NC(=O)[C@H](CC(C)C)NC(=O)[C@H](CC(C)C)NC(=O)OCc1ccccc1 [MG132, reference compound] (Cbz-Leu-Leu-Leu-aldehyde)
- band intensity of Mcl-1 relative to tubulin (Mcl-1): increased

SMILES: CN1CCCCOc2ccc(cc2)C(=O)NCc2cccc(c2)C(=O)N[C@@H](CC(C)(C)C)C(=O)Nc2ccc(cc2)CCC1=O [Compound 6A]
- cell viability [1]: significant decreases
- cell viability (RKO colon cells): significant decreases
- cell viability (BT-549 cancer cells): significant decreases

- IC50 (BT-549): 5.4 µM
- IC50 (A549): 14 µM
- IC50 (BT-20): 5.1 µM
- IC50 (CCRF-CEM): 4.4 µM
- IC50 (LoVo): 5.5 µM
- IC50 (MOLT-4): 4 µM
SMILES: CCC[C@H](NC(=O)/C(C#N)=C/c1cccc(Br)n1)c1ccccc1 [WP1130, reference compound]
- fold more potent than Compound 7A (66 cancer cell lines): above 4 fold
- IC50 (A-172): 5.6 µM
- IC50 (DU 145): 9.6 µM
- IC50 (H82): 6.6 µM
- IC50 (Hs 57BT): 6.3 µM
- IC50 (RKO): 4.3 µM
- IC50 (RPMI-7951): 4.2 µM
- inhibits USP9X (USP9X): inhibited
- inhibits USP5 (USP5): inhibited
- inhibits USP14 (USP14): inhibited
- inhibits UCH-L1 (UCH-L1): inhibited
- inhibits UCH37 (UCH37): inhibited
